Where “and” joins values, the source holds several entries; their conditions need not be identical. Equal values may be shown once. ± gives the expanded uncertainty stated by the source.
Experiment: activity coefficient (dimensionless); of the first substance listed, at infinite dilution; xn = mol fraction of the nth substance listed
Conditions: Liquid, x1 = 0
[1] = 303.15 K, comparative tensimetry
[2] = 308.15 K, comparative tensimetry
[3] = 313.15 K, comparative tensimetry
[4] = 318.15 K, comparative tensimetry
[5] = 323.15 K, comparative tensimetry
[6] = 328.15 K, comparative tensimetry
[7] = 333.15 K, comparative tensimetry
[8] = 372.15 K, circulating still method
[9] = 358.15 K, circulating still method
[10] = 363.15 K, circulating still method
[11] = 368.15 K, circulating still method

Row | SMILES | activity coefficient (273.35 K, headspace analysis) | activity coefficient (283.15 K, headspace analysis) | activity coefficient (293.15 K, headspace analysis) | activity coefficient [1] | activity coefficient [2] | activity coefficient [3] | activity coefficient [4] | activity coefficient [5] | activity coefficient [6] | activity coefficient [7] | activity coefficient [8] | activity coefficient [9] | activity coefficient [10] | activity coefficient [11] | further results
1 | CCCCO [butan-1-ol] + O | 32.6 ± 1 | 40.4 ± 1.2 | 48.4 ± 1.5 | 53.4 ± 1.6 | 57.2 ± 1.7 | 58.9 ± 1.8 | 60.2 ± 1.8 | 61.5 ± 1.8 | 62.8 ± 1.9 | 63.4 ± 1.9 | 56.1 ± 1.7 | – | – | – | activity coefficient (323.15 K, headspace analysis): 58.7 and 59.4
2 | CCO [ethanol] + O | 2.54 ± 0.08 | 3.13 ± 0.09 | – | 4.14 ± 0.12 | 4.43 ± 0.13 | 4.66 ± 0.14 | 4.85 ± 0.15 | 5.03 ± 0.15 | 5.2 ± 0.16 | 5.3 ± 0.16 | 6.2 ± 0.2 | 5.9 ± 0.2 | 6 ± 0.2 | 6.1 ± 0.2 | –
3 | CO [methanol] + O | 1.23 ± 0.04 | 1.4 ± 0.04 | 1.55 ± 0.05 | 1.71 ± 0.05 | 1.8 ± 0.05 | 1.88 ± 0.06 | 1.95 ± 0.06 | 2.02 ± 0.06 | 2.09 ± 0.06 | 2.16 ± 0.07 | – | – | – | – | activity coefficient (358.15 K, circulation still method): 2.31 ± 0.07; activity coefficient (363.15 K, circulation still method): 2.38 ± 0.07; activity coefficient (368.15 K, circulation still method): 2.41 ± 0.07; activity coefficient (372.15 K, circulation still method): 2.4 ± 0.07
4 | CCCCCO [pentan-1-ol] + O | 121 ± 4 | 156 ± 5 | 184 ± 6 | – | – | – | – | – | – | – | – | – | 181 ± 5 | – | activity coefficient (303.15 K, inert gas stripping): 203 ± 6; activity coefficient (313.15 K, inert gas stripping): 221 ± 7; activity coefficient (323.15 K, inert gas stripping): 230 ± 7; activity coefficient (333.15 K, Rayleigh distillation): 221 ± 7; activity coefficient (343.15 K, Rayleigh distillation): 206 ± 6; activity coefficient (353.15 K, circulating still method): 203 ± 6; activity coefficient (371.15 K, circulating still method): 169 ± 5
5 | CCCO [propan-1-ol] + O | 8.9 ± 0.3 | 11.2 ± 0.3 | 13.5 ± 0.4 | 15.3 ± 0.5 | 16.1 ± 0.5 | 16.7 ± 0.5 | 17.5 ± 0.5 | 18.1 ± 0.5 | 18.6 ± 0.6 | 19 ± 0.6 | 18.9 ± 0.6 | 20.1 ± 0.6 | 19.5 ± 0.6 | 18.7 ± 0.6 | –
